Measurements: US20220008547A1, “Carrier Peptide Fragment and use Thereof” (TOAGOSEI CO., LTD, priority 2020, published 2022)
Non-standard residues stand in square brackets, D forms with d. No end group written: not given here. FAM = fluorescent dye label; Ahx = NCCCCCC(=O)O; βAla = NCCC(=O)O

Test system: HeLa cells
Assay: Evaluation of cell-penetrating function by flow cytometry (mean fluorescent intensity)
Format: cell-based, human
Details: for MFI (mean fluorescent intensity of measurement target cell populations): 10 μM final concentration, 20-hour incubation at 37° C., 0.5% DMSO, flow cytometer FL2, 10,000 cells
Experimental: HeLa cells (established cell lines derived from human cervical cancer cells) were used as eukaryotic cells, and cell-penetrating functions of three samples (constructs for introducing a foreign substance) obtained in Example 1 were examined
In this example, Examples 1 to 3 were set according to the kind of peptide used as shown below. In addition, as Examples 4 and 5, peptide-free groups were set. The following test was performed in a total of 5 categories. Here, the concentration described below was a final concentration during the following 20-hour incubation.
Here, in all of the examples, the concentration of DMSO was adjusted to 0.5% during the following 20-hour incubation. In addition, the number of test wells (n) in each of the above examples was set to 3.
HeLa cells were cultured using a mixed solution containing a 90% Eagle's MEM medium (containing 0.1% non-essential amino acid, 2 mM of L-glutamine, 1 mM of sodium pyruvate, and 1.5 g/L of sodium bicarbonate) and 10% serum (FBS: fetal bovine serum) as a culture solution.
The HeLa cells were subjected to a trypsin treatment with a 0.25% trypsin/EDTA solution at 37° C. for 3 minutes. After the above treatment, trypsin was inactivated using the culture solution. Centrifugation was performed and the centrifugal supernatant was removed. The cell pellet obtained by centrifugation was suspended in a fresh culture solution. A cell suspension (sample for introducing a foreign substance) having a cell concentration of about 1×10^5 cells/well was prepared from the culture solution, and 2 ml thereof was seeded in each well of a commercially available 6-well plate (commercially available from Iwaki). Then, the cells were cultured at 37° C. for 4 hours under 5% CO2 conditions, and adhesion of the seeded cells was confirmed.
Then, 1 ml of the culture supernatant was removed from the well after the culture for 4 hours, and a culture solution containing Sample 1 at a concentration of 20 μM was added. That is, the final sample concentration in the well was 10 μM.
The plate was then incubated at 37° C. for 20 hours under 5% CO2 conditions.
After such incubation for 20 hours, the cells were washed twice with PBS at 1 ml/well. Then, the cells in the wells were treated with a 0.25% trypsin/EDTA solution at 200 μL/well at 37° C. for 3 minutes. Then, a culture solution at 400 μL/well was additionally added and the cells were collected in the tube. Then, the wells were additionally washed with PBS at 600 μL/well, and the cells remaining in the wells were collected in the above tube. The tube was centrifuged at 4° C. for 5 minutes under 210×g conditions. The centrifugal supernatant was removed, and the cell pellet was suspended (washed) in 1 ml PBS, and centrifuged under the same conditions as above. This operation was repeated twice.
Then, the collected cells were analyzed using a flow cytometer. […]
Using the above flow cytometer, gating was performed based on forward scatter (FSC) and side scatter (SSC), and a gate was set for a measurement target cell population. Then, the fluorescent intensity of the cell population within such a gate was measured. The fluorescent intensity of 10,000 measurement target cells was measured for each measurement sample. […] The measurement results were analyzed using commercially available analysis software “FlowJo (registered trademark)” (commercially available from TreeStar), and a mean fluorescent intensity (MFI) of measurement target cell populations was obtained. […]

Substance | MFI (mean fluorescent intensity of measurement target cell populations) | cell permeability (comparison of MFI among samples) (10 μM, 20-hour incubation)
5(6)-Carboxyfluorescein [Example 4] | 9.7 | 
FAM-KKRTLRKNDRKKR-CONH2 ({FAM}-KKRTLRKNDRKKR-NH2) [Example 2] | 24 | 
FAM-TLKERCLQVVRSLVKKKRTLRKNDRKKR-CONH2 ({FAM}-TLKERCLQVVRSLVKKKRTLRKNDRKKR-NH2) [Example 1] | 8.2 × 10^2 | the best
RXRRBRRXRYQFLIRXRBRXRB-FAM (R[Ahx]RR[βAla]RR[Ahx]RYQFLIR[Ahx]R[βAla]R[Ahx]R[βAla]-{FAM}) [Example 3, X aminohexanoic acid, B β-alanine] | 4.0 × 10^2 | 
